From US20220323429A1, “PIMAVANSERIN FOR TREATING NEURODEGENERATIVE DISEASES” (ACADIA Pharmaceuticals Inc., priority 2019, published 2022)

Assays:
[1] = In-use stability impurity analysis (HPLC) of pimavanserin 34 mg capsule contents in vehicles; assay type: physicochemical; settings: for Impurity D / Impurity Unknown RRT 0.90 / Impurity Unknown RRT 0.99 / Impurity Unknown RRT 1.10 / Total Imp.: ambient
Protocol: (§1) Analytical HPLC Stability Study experiments (Example 1) were performed on Agilent 1200 Series, or equivalent; Waters XBridge C18 column, 5 μm 150×4.6 mm; mobile phase: Solvent A: 50 mM ammonium bicarbonate, pH 8.0; Solvent B: acetonitrile/methanol, 80:20 (v/v); Flow rate: 1 mL/min; Inj. Volume 20 μL; Autosampler Temp. 5° C.; column temperature: 40° C., detection UV at 210 nm; sample concentration (as free base) assay: 0.068 mg/mL, impurity: 0.68 mg/mL; standard concentration (as free base) 0.068 mg/mL; PLOQ Std. 0.05% of 0.68 mg/mL; SST solution, 1% of 0.68 mg/mL (impurities A, C, D, E, F, and G); diluent for standards 80/20 (v/v) ethanol/water; diluent for samples, ethanol; run time 40 min; gradient method: 0 min mobile phase A (90%) and mobile phase B (10%) to 30 min mobile phase A (0%), and mobile phase B (100%); then 30.1 min to 40 min mobile phase A (90%), mobile phase B (10%).
Samples for the assessment of the degradation products stability from solutions or mixtures of pimavanserin in vehicles were prepared as follows. Four samples (n=4) were prepared for each vehicle as follows.
(§2) For each sample, one capsule was weighed, and the content of each capsule was dropped into a 50 mL volumetric flask and the empty capsule shell was weighed and discarded. The specified amount of each vehicle was added as specified in Table 3, below.
(§3) The flasks were gently swirled to ensure the capsule contents were visually incorporated with the vehicle. The flasks were kept on the bench at ambient temperature for each time point: 2, 4, and 24 hours. Time 0 samples were processed immediately. At the specified time point a stir bar and approximately 45 mL of diluent were added to the flask. The solution was stirred vigorously for 2 hours, and the flask was left on the bench overnight. The next day the flasks were sonicated for approximately 30 minutes. The stir bar was removed and rinsed carefully with diluent into the flask, and the flask was diluted to volume with diluent and mixed well by inversion. An aliquot of each solution was centrifuged for 5 minutes at 10000 rpm. The supernatant was transferred to a HPLC vial, and injected for analysis.

[2] = Assay from diluted impurity samples (mass balance), in-use stability; assay type: physicochemical; settings: for Assay (%) from diluted impurity sample: ambient; for Absolute Difference from Time 0 (%): diluted impurity sample
Protocol: as §1, §2, §3
Samples were prepared by transferring the stock volume using a volumetric pipet into a 20 mL volumetric flask, diluted to volume with diluent, and mixed well by inversion. An aliquot of each solution was centrifuged for 5 minutes at 10000 rpm. The supernatant was transferred to a HPLC vial and injected for analysis.

- Impurity D ([1]; Ensure 5 mL, T = 0): 0.22 % w/w
- Impurity Unknown RRT 0.90 ([1]; Ensure 5 mL, T = 0): 0.08 % w/w
- Impurity Unknown RRT 0.99 ([1]; Ensure 5 mL, T = 0): 0.09 % w/w
- Impurity Unknown RRT 1.10 ([1]; Ensure 5 mL, T = 0): 0.06 % w/w
- Total Imp. ([1]; Ensure 5 mL, T = 0): 0.45 % w/w
- Impurity D ([1]; Ensure 5 mL, T = 2 h): 0.20 % w/w
- Impurity Unknown RRT 0.90 ([1]; Ensure 5 mL, T = 2 h): 0.08 % w/w
- Impurity Unknown RRT 0.99 ([1]; Ensure 5 mL, T = 2 h): 0.10 % w/w
- Impurity Unknown RRT 1.10 ([1]; Ensure 5 mL, T = 2 h): 0.05 % w/w
- Total Imp. ([1]; Ensure 5 mL, T = 2 h): 0.43 % w/w
- Impurity D ([1]; Ensure 5 mL, T = 4 h): 0.23 % w/w
- Impurity Unknown RRT 0.90 ([1]; Ensure 5 mL, T = 4 h): 0.08 % w/w
- Impurity Unknown RRT 0.99 ([1]; Ensure 5 mL, T = 4 h): 0.09 % w/w
- Impurity Unknown RRT 1.10 ([1]; Ensure 5 mL, T = 4 h): 0.06 % w/w
- Total Imp. ([1]; Ensure 5 mL, T = 4 h): 0.46 % w/w
- Impurity D ([1]; Ensure 5 mL, T = 24 h): 0.23 % w/w
- Impurity Unknown RRT 0.90 ([1]; Ensure 5 mL, T = 24 h): 0.07 % w/w
- Impurity Unknown RRT 0.99 ([1]; Ensure 5 mL, T = 24 h): 0.10 % w/w
- Impurity Unknown RRT 1.10 ([1]; Ensure 5 mL, T = 24 h): 0.06 % w/w
- Total Imp. ([1]; Ensure 5 mL, T = 24 h): 0.46 % w/w
- change in impurity profile ([1]; any vehicle, over 24 hours at ambient room temperature): no significant change
- Impurity D ([1]; applesauce 5 g, T = 0): 0.19 % w/w
- Impurity Unknown RRT 0.99 ([1]; applesauce 5 g, T = 0): 0.09 % w/w
- Total Imp. ([1]; applesauce 5 g, T = 0): 0.28 % w/w
- Impurity D ([1]; applesauce 5 g, T = 2 h): 0.21 % w/w
- Impurity Unknown RRT 0.99 ([1]; applesauce 5 g, T = 2 h): 0.10 % w/w
- Total Imp. ([1]; applesauce 5 g, T = 2 h): 0.31 % w/w
- Impurity D ([1]; applesauce 5 g, T = 4 h): 0.22 % w/w
- Impurity Unknown RRT 0.99 ([1]; applesauce 5 g, T = 4 h): 0.10 % w/w
- Total Imp. ([1]; applesauce 5 g, T = 4 h): 0.32 % w/w
- Impurity D ([1]; applesauce 5 g, T = 24 h): 0.22 % w/w
- Impurity Unknown RRT 0.99 ([1]; applesauce 5 g, T = 24 h): 0.09 % w/w
- Total Imp. ([1]; applesauce 5 g, T = 24 h): 0.31 % w/w
- individual and total impurities across timepoints ([1]; each vehicle, 0-24 h): consistent between all timepoints
- Impurity D ([1]; orange juice 5 mL, T = 0): 0.17 % w/w
- Impurity Unknown RRT 0.99 ([1]; orange juice 5 mL, T = 0): 0.09 % w/w
- Total Imp. ([1]; orange juice 5 mL, T = 0): 0.26 % w/w
- Impurity D ([1]; orange juice 5 mL, T = 2 h): 0.17 % w/w
- Impurity Unknown RRT 0.99 ([1]; orange juice 5 mL, T = 2 h): 0.09 % w/w
- Total Imp. ([1]; orange juice 5 mL, T = 2 h): 0.26 % w/w
- Impurity D ([1]; orange juice 5 mL, T = 4 h): 0.17 % w/w
- Impurity Unknown RRT 0.99 ([1]; orange juice 5 mL, T = 4 h): 0.09 % w/w
- Total Imp. ([1]; orange juice 5 mL, T = 4 h): 0.26 % w/w
- Impurity D ([1]; orange juice 5 mL, T = 24 h): 0.17 % w/w
- Impurity Unknown RRT 0.99 ([1]; orange juice 5 mL, T = 24 h): 0.09 % w/w
- Total Imp. ([1]; orange juice 5 mL, T = 24 h): 0.26 % w/w
- additional unknown impurities ([1]; two impurities, samples extracted from vanilla Ensure, time 0): < 0.1%
- Impurity D ([1]; water 5 mL, T = 0): 0.23 % w/w
- Impurity Unknown RRT 0.99 ([1]; water 5 mL, T = 0): 0.10 % w/w
- Total Imp. ([1]; water 5 mL, T = 0): 0.33 % w/w
- Impurity D ([1]; water 5 mL, T = 2 h): 0.24 % w/w
- Impurity Unknown RRT 0.99 ([1]; water 5 mL, T = 2 h): 0.10 % w/w
- Total Imp. ([1]; water 5 mL, T = 2 h): 0.34 % w/w
- Impurity D ([1]; water 5 mL, T = 4 h): 0.23 % w/w
- Impurity Unknown RRT 0.99 ([1]; water 5 mL, T = 4 h): 0.10 % w/w
- Total Imp. ([1]; water 5 mL, T = 4 h): 0.33 % w/w
- Impurity D ([1]; water 5 mL, T = 24 h): 0.25 % w/w
- Impurity Unknown RRT 0.99 ([1]; water 5 mL, T = 24 h): 0.10 % w/w
- Total Imp. ([1]; water 5 mL, T = 24 h): 0.35 % w/w
- Assay (%) from diluted impurity sample ([2]; Ensure 5 mL, T = 0): 97.1%
- Assay (%) from diluted impurity sample ([2]; Ensure 5 mL, T = 2 h): 94.6%
- Assay (%) from diluted impurity sample ([2]; Ensure 5 mL, T = 4 h): 97.9%
- Assay (%) from diluted impurity sample ([2]; Ensure 5 mL, T = 24 h): 97.3%
- Absolute Difference from Time 0 (%) ([2]; Ensure, T = 0): 2.9%
- Absolute Difference from Time 0 (%) ([2]; Ensure, T = 2 h): 5.4%
- Absolute Difference from Time 0 (%) ([2]; Ensure, T = 4 h): 2.1%
- Absolute Difference from Time 0 (%) ([2]; Ensure, T = 24 h): 2.7%
- Assay (%) from diluted impurity sample ([2]; applesauce 5 g, T = 0): 97.5%
- Assay (%) from diluted impurity sample ([2]; applesauce 5 g, T = 2 h): 99.4%
- Assay (%) from diluted impurity sample ([2]; applesauce 5 g, T = 4 h): 104.1%
- Assay (%) from diluted impurity sample ([2]; applesauce 5 g, T = 24 h): 99.5%
- Absolute Difference from Time 0 (%) ([2]; applesauce, T = 0): 4.4%
- Absolute Difference from Time 0 (%) ([2]; applesauce, T = 2 h): 2.5%
- Absolute Difference from Time 0 (%) ([2]; applesauce, T = 4 h): 2.2%
- Absolute Difference from Time 0 (%) ([2]; applesauce, T = 24 h): 2.4%
- assay results difference from time 0 ([2]; diluted impurity samples, all vehicles and times): ≤ 5%
- Assay (%) from diluted impurity sample ([2]; orange juice 5 mL, T = 0): 97.7%
- Assay (%) from diluted impurity sample ([2]; orange juice 5 mL, T = 2 h): 97.5%
- Assay (%) from diluted impurity sample ([2]; orange juice 5 mL, T = 4 h): 96.4%
- Assay (%) from diluted impurity sample ([2]; orange juice 5 mL, T = 24 h): 99.2%
- Absolute Difference from Time 0 (%) ([2]; orange juice, T = 0): 2.6%
- Absolute Difference from Time 0 (%) ([2]; orange juice, T = 2 h): 2.8%
- Absolute Difference from Time 0 (%) ([2]; orange juice, T = 4 h): 3.9%
- Absolute Difference from Time 0 (%) ([2]; orange juice, T = 24 h): 1.1%
- Assay (%) from diluted impurity sample ([2]; water 5 mL, T = 0): 95.6%
- Assay (%) from diluted impurity sample ([2]; water 5 mL, T = 2 h): 98.2%
- Assay (%) from diluted impurity sample ([2]; water 5 mL, T = 4 h): 97.1%
- Assay (%) from diluted impurity sample ([2]; water 5 mL, T = 24 h): 97.5%
- Absolute Difference from Time 0 (%) ([2]; water, T = 0): 3.3%
- Absolute Difference from Time 0 (%) ([2]; water, T = 2 h): 0.7%
- Absolute Difference from Time 0 (%) ([2]; water, T = 4 h): 1.8%
- Absolute Difference from Time 0 (%) ([2]; water, T = 24 h): 1.4%
Structure (SMILES): CC(C)COc1ccc(CNC(=O)N(Cc2ccc(F)cc2)C2CCN(C)CC2)cc1 [Pimavanserin, N-(4-Fluorophenylmethyl)-N-(1-methylpiperidin-4-yl)-N′-(4-(2-methylpropyloxy)phenylmethyl)carbamide]
